In brackets after ≈: the same amount, converted by molar mass.
Key:
[1] = system: Mucor circinelloides; assay: MIC broth microdilution (CLSI); type: cell-based; details: Mucor circinelloides 80-14-240-5007
Method: (§1) Antifungal susceptibility was determined by broth microdilution according to the CLSI guidelines described in M27-Ed4 ([16]).

[2] = system: Cryptococcus bacillisporus; assay: MIC broth microdilution (CLSI); type: cell-based; details: Cryptococcus bacillisporus NIH179
Method: as §1

[3] = system: Cryptococcus tetragattii; assay: MIC broth microdilution (CLSI); type: cell-based; details: Cryptococcus tetragattii WM779
Method: as §1

[4] = system: Cryptococcus deneoformans; assay: MIC broth microdilution (CLSI); type: cell-based; details: Cryptococcus deneoformans JEC21
Method: as §1

[5] = system: Pichia kudriavzevii; assay: MIC broth microdilution (CLSI); type: cell-based; details: Pichia kudriavzavii ATCC 6258
Method: Antifungal susceptibility was determined by broth microdilution according to the CLSI guidelines described in M27-Ed4 ([16]). […] MFC was determined by back-plating drug-treated cultures from MIC broths onto SDA plates. The MFC was defined as the lowest concentration from which no colonies could be cultured.

[6] = system: Candida auris; assay: MIC broth microdilution (CLSI); type: cell-based; details: Candida auris CDC-0384
Method: as §1

[7] = system: Aspergillus niger; assay: MIC broth microdilution (CLSI); type: cell-based; details: Aspergillus niger 111
Method: as §1

[8] = system: Aspergillus terreus; assay: MIC broth microdilution (CLSI); type: cell-based; details: Aspergillus terreus 75-16-089-2500
Method: as §1

[9] = system: Aspergillus udagawae; assay: MIC broth microdilution (CLSI); type: cell-based; details: Aspergillus udagawae 8G81
Method: as §1

[10] = system: Aspergillus felis; assay: MIC broth microdilution (CLSI); type: cell-based; details: Aspergillus felis IHE87256683D6
Method: as §1

[11] = system: Aspergillus parafelis; assay: MIC broth microdilution (CLSI); type: cell-based; details: Aspergillus parafelis DTO 341-F2
Method: as §1

[12] = system: Aspergillus frankstonensis; assay: MIC broth microdilution (CLSI); type: cell-based; details: Aspergillus frankstonensis DTO 341-F3
Method: as §1

[13] = system: Epidermophyton floccosum; assay: MIC broth microdilution (CLSI); type: cell-based; details: Epidermophyon floccosum R-113
Method: as §1

[14] = system: Paraphyton cookei; assay: MIC broth microdilution (CLSI); type: cell-based; details: Paraphyton cookei R-639
Method: as §1

[15] = system: Nannizzia gypsea; assay: MIC broth microdilution (CLSI); type: cell-based; details: Nannizzia gypsea R-131
Method: as §1

[16] = system: Nannizzia nana; assay: MIC broth microdilution (CLSI); type: cell-based; details: Nannizzia nana R-133
Method: as §1

[17] = system: Cryptococcus gattii; assay: checkerboard drug interaction (FICI, MICc); type: cell-based;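 also: simplified diagonal checkerboard screen pairing antifungals with FPPS inhibitors, FICI computed under the Loewe additivity model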
Method: (§2) Drug interactions between antifungals and FPPS inhibitors were investigated using a simplified checkerboard diagonal screening method ([45]). […] FICIs were determined according to the Loewe additivity model ([17]).

[18] = system: Cryptococcus bacillisporus; assay: checkerboard drug interaction (FICI, MICc); type: cell-based;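 also: interaction of antifungals with FPPS inhibitors assessed by a simplified diagonal checkerboard screen, with FICI computed under the Loewe additivity model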
Method: as §2

[19] = system: Fusarium oxysporum; assay: checkerboard drug interaction (FICI, MICc); type: cell-based;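 also: simplified diagonal checkerboard screen pairing antifungals with FPPS inhibitors, FICI calculated under the Loewe additivity model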
Method: as §2

[20] = system: Fusarium solani; assay: checkerboard drug interaction (FICI, MICc); type: cell-based;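 also: simplified diagonal checkerboard screen pairing antifungals with FPPS inhibitors, FICI derived under the Loewe additivity model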
Method: as §2

[21] = system: Scedosporium apiospermum; assay: checkerboard drug interaction (FICI, MICc); type: cell-based;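 also: simplified diagonal checkerboard screen of antifungal plus FPPS inhibitor pairs, with FICI computed under the Loewe additivity model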
Method: as §2

[22] = system: Pichia kudriavzevii; assay: checkerboard drug interaction (FICI, MICc); type: cell-based;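 also: antifungal plus FPPS inhibitor interactions tested in a simplified diagonal checkerboard screen, with FICI calculated under the Loewe additivity model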
Method: as §2

[23] = system: Candida parapsilosis; assay: checkerboard drug interaction (FICI, MICc); type: cell-based;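 also: simplified diagonal checkerboard screen pairing antifungals with FPPS inhibitors, with FICI computed under the Loewe additivity model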
Method: as §2

[24] = system: Candida dubliniensis; assay: checkerboard drug interaction (FICI, MICc); type: cell-based;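 also: simplified diagonal checkerboard screen pairing antifungals with FPPS inhibitors, FICI calculated under the Loewe additivity model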
Method: as §2

[25] = system: Aspergillus niger; assay: checkerboard drug interaction (FICI, MICc); type: cell-based;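 also: simplified diagonal checkerboard screen pairing antifungals with FPPS inhibitors, FICI calculated under the Loewe additivity model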
Method: as §2

[26] = system: Aspergillus terreus; assay: checkerboard drug interaction (FICI, MICc); type: cell-based;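 also: simplified diagonal checkerboard screen pairing antifungals with FPPS inhibitors, FICI derived by the Loewe additivity model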
Method: as §2

[27] = system: Aspergillus udagawae; assay: checkerboard drug interaction (FICI, MICc); type: cell-based;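 also: simplified diagonal checkerboard screen pairing antifungals with FPPS inhibitors, FICI calculated using the Loewe additivity model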
Method: as §2

[28] = system: Aspergillus lentulus; assay: checkerboard drug interaction (FICI, MICc); type: cell-based;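 also: simplified diagonal checkerboard screen pairing antifungals with FPPS inhibitors, with the interaction index calculated under the Loewe additivity model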
Method: as §2

[29] = system: Microsporum canis; assay: checkerboard drug interaction (FICI, MICc); type: cell-based;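 also: simplified diagonal checkerboard screen pairing antifungals with FPPS inhibitors, FICI calculated under the Loewe additivity model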
Method: as §2

[30] = system: Nannizzia nana; assay: checkerboard drug interaction (FICI, MICc); type: cell-based
Method: as §2

[31] = system: Trichophyton tonsurans; assay: checkerboard drug interaction (FICI, MICc); type: cell-based;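 also: simplified diagonal checkerboard screen combining antifungals with FPPS inhibitors, with FICI calculated under the Loewe additivity model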
Method: as §2

[32] = system: Microsporum canis; assay: MIC broth microdilution (CLSI); details: Microsporum canis R-232
Method: as §1

[33] = system: Trichophyton soudanense; assay: MIC broth microdilution (CLSI); details: Trichophyton soudanense R-167
Method: as §1

[34] = system: Aspergillus parafelis; assay: checkerboard drug interaction (FICI, MICc)
Method: as §2

[35] = system: Paraphyton cookei; assay: checkerboard drug interaction (FICI, MICc);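 also: simplified diagonal checkerboard screen pairing an antifungal with an FPPS inhibitor, FICI computed under the Loewe additivity model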
Method: as §2

[36] = system: Nannizzia gypsea; assay: checkerboard drug interaction (FICI, MICc);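 also: simplified diagonal checkerboard screen pairing antifungals with FPPS inhibitors, FICI derived using the Loewe additivity model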
Method: as §2

Nc1nc(=O)[nH]cc1F [5FC, 5-flucytosine]
MIC / MEC [1]: >64 mg/L | MIC / MEC [2]: 4 mg/L (≈ 31 µM) | MIC / MEC [3]: 4 mg/L (≈ 31 µM) | MIC / MEC [4]: 2 mg/L (≈ 15.5 µM) | MIC / MEC [5]: 16 mg/L (≈ 124 µM) | MIC / MEC [6]: 2 mg/L (≈ 15.5 µM) | MIC / MEC [7]: >64 mg/L | MIC / MEC [8]: 64 mg/L (≈ 496 µM) | MIC / MEC [9]: >64 mg/L | MIC / MEC [10]: >64 mg/L | MIC / MEC [11]: >64 mg/L | MIC / MEC [12]: >64 mg/L | MIC / MEC [13]: 64 mg/L (≈ 496 µM) | MIC / MEC [14]: >64 mg/L | MIC / MEC [15]: >64 mg/L | MIC / MEC [16]: 32 mg/L (≈ 248 µM) | antifungal MICc ([17]; in combination with 10-ZOL): 0.25 | antifungal MICc ([17]; in combination with ZOL): 0.125 | antifungal MICc ([18]; in combination with 10-ZOL): 1 | antifungal MICc ([18]; in combination with ZOL): 0.125 | antifungal MICc ([19]; in combination with 10-ZOL): 512 | antifungal MICc ([19]; in combination with ZOL): 512 | antifungal MICc ([20]; in combination with 10-ZOL): 512 | antifungal MICc ([20]; in combination with ZOL): 256 | antifungal MICc ([21]; in combination with 10-ZOL): 256 | antifungal MICc ([21]; in combination with ZOL): 256 | antifungal MICc ([22]; in combination with 10-ZOL): 16 | antifungal MICc ([22]; in combination with ZOL): 2 | antifungal MICc ([23]; in combination with 10-ZOL): 0.125 | antifungal MICc ([23]; in combination with ZOL): 0.25 | antifungal MICc ([24]; in combination with 10-ZOL): 0.125 | antifungal MICc ([24]; in combination with ZOL): 0.125 | antifungal MICc ([25]; in combination with 10-ZOL): 512 | antifungal MICc ([25]; in combination with ZOL): 256 | antifungal MICc ([26]; in combination with 10-ZOL): 64 | antifungal MICc ([26]; in combination with ZOL): 32 | antifungal MICc ([27]; in combination with 10-ZOL): 64 | antifungal MICc ([27]; in combination with ZOL): 256 | antifungal MICc ([28]; in combination with 10-ZOL): 512 | antifungal MICc ([28]; in combination with ZOL): 256 | antifungal MICc ([29]; in combination with 10-ZOL): 256 | antifungal MICc ([29]; in combination with ZOL): 512 | antifungal MICc ([30]; in combination with 10-ZOL): 32 | antifungal MICc ([30]; in combination with ZOL): 64 | antifungal MICc ([31]; in combination with 10-ZOL): 64 | antifungal MICc ([31]; in combination with ZOL): 64 | MIC / MEC [32]: >64 mg/L | MIC / MEC [33]: 64 mg/L (≈ 496 µM) | antifungal MICc ([34]; in combination with 10-ZOL): 512 | antifungal MICc ([34]; in combination with ZOL): 128 | antifungal MICc ([35]; in combination with 10-ZOL): 512 | antifungal MICc ([35]; in combination with ZOL): 512 | antifungal MICc ([36]; in combination with 10-ZOL): 512 | antifungal MICc ([36]; in combination with ZOL): 256

OC(Cn1cncn1)(Cn1cncn1)c1ccc(F)cc1F [FLC, fluconazole]
MIC / MEC [2]: 1 mg/L (≈ 3.27 µM) | MIC / MEC [3]: 4 mg/L (≈ 13.1 µM) | MIC / MEC [4]: 0.5 mg/L (≈ 1.63 µM) | MIC / MEC [5]: 32 mg/L (≈ 104 µM) | MIC / MEC [8]: 64 mg/L (≈ 209 µM) | MIC / MEC [16]: 32 mg/L (≈ 104 µM) | antifungal MICc ([17]; in combination with 10-ZOL): 1 | antifungal MICc ([17]; in combination with ZOL): 0.25 | antifungal MICc ([18]; in combination with 10-ZOL): 1 | antifungal MICc ([18]; in combination with ZOL): 0.125 | antifungal MICc ([19]; in combination with ZOL): 64 | antifungal MICc ([20]; in combination with 10-ZOL): 64 | antifungal MICc ([20]; in combination with ZOL): 32 | antifungal MICc ([22]; in combination with 10-ZOL): 16 | antifungal MICc ([22]; in combination with ZOL): 8 | antifungal MICc ([23]; in combination with 10-ZOL): 1 | antifungal MICc ([23]; in combination with ZOL): 0.25 | antifungal MICc ([24]; in combination with 10-ZOL): 0.125 | antifungal MICc ([24]; in combination with ZOL): 0.03125 | antifungal MICc ([25]; in combination with 10-ZOL): 64 | antifungal MICc ([26]; in combination with 10-ZOL): 2 | antifungal MICc ([26]; in combination with ZOL): 8 | antifungal MICc ([27]; in combination with 10-ZOL): 4 | antifungal MICc ([28]; in combination with 10-ZOL): 4 | antifungal MICc ([28]; in combination with ZOL): 64 | antifungal MICc ([29]; in combination with 10-ZOL): 64 | antifungal MICc ([29]; in combination with ZOL): 32 | antifungal MICc ([30]; in combination with 10-ZOL): 32 | antifungal MICc ([30]; in combination with ZOL): 8 | antifungal MICc ([31]; in combination with 10-ZOL): 2 | antifungal MICc ([31]; in combination with ZOL): 32 | antifungal MICc ([34]; in combination with 10-ZOL): 4 | antifungal MICc ([35]; in combination with 10-ZOL): 8 | antifungal MICc ([36]; in combination with 10-ZOL): 64
